Where “and” joins values, the source holds several entries; their conditions need not be identical. Identical values can stand only once. Toxic doses and inconclusive results are not listed.
Test system: P388 leukemia ip, CD2F1 mice, survival T/C
Assay: NCI In Vivo Anticancer Drug Screen. Data for tumor model P388 Leukemia (intraperitoneal) in CD2F1 (CDF1) mice
Conditions: endpoint: median survival time, higher = longer survival
Summary of the method: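 Mice carrying the transplanted tumor received test compound or vehicle. Survival was recorded in each group, and the value is the treated-group measurement divided by that of the vehicle-treated control group.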

[1] = dose: 50.0 mg/kg/injection, schedule: Q01DX005 (ip), vehicle: saline with Tween-80
[2] = dose: 100.0 mg/kg/injection, schedule: Q01DX005 (ip), vehicle: saline with Tween-80
[3] = dose: 200.0 mg/kg/injection, schedule: Q01DX005 (ip), vehicle: saline with Tween-80
[4] = dose: 100.0 mg/kg/injection, schedule: Q01DX009 (ip), vehicle: saline with Tween-80
[5] = dose: 60.0 mg/kg/injection, schedule: Q01DX005 (ip), vehicle: saline with Tween-80
[6] = dose: 25.0 mg/kg/injection, schedule: Q01DX009 (ip), vehicle: saline with Tween-80
[7] = dose: 50.0 mg/kg/injection, schedule: Q01DX009 (ip), vehicle: saline with Tween-80

COCN(C)N=Nc1ccc(Br)cc1
T/C [1]: 95 % of control
T/C [2]: 103 % of control
T/C [3]: 102 % of control

CCN(CC)CCCN(c1ccccc1)C1Cc2ccccc2C1
T/C (dose: 15.0 mg/kg/injection, schedule: Q01DX009 (ip), vehicle: saline): 95 % of control
T/C (dose: 30.0 mg/kg/injection, schedule: Q01DX009 (ip), vehicle: saline): 87 % of control
T/C (dose: 60.0 mg/kg/injection, schedule: Q01DX009 (ip), vehicle: saline): 101 % of control

CC1CC2OC(/C=C/C=C/C=C\C=C\C=C\C(O)=C3\C(=O)C(C(C)C)N(C)C3=O)C(O)C2O1 (stereo not drawn)
T/C (dose: 3.0 mg/kg/injection, schedule: Q01DX005 (ip), vehicle: Klucel (hydroxypropylcellulose) (HPC)): 120 % of control and 124 % of control

C=C(C)C(=O)Oc1cccccc1=O
T/C [1]: 102 % of control
T/C [2]: 106 % of control
T/C [3]: 114 % of control

CC(=O)c1cccc2cccc([N+](=O)[O-])c12
T/C [4]: 104 % of control
T/C (dose: 200.0 mg/kg/injection, schedule: Q01DX009 (ip), vehicle: saline with Tween-80): 90 % of control
T/C (dose: 400.0 mg/kg/injection, schedule: Q01DX009 (ip), vehicle: saline with Tween-80): 104 % of control

CCCCCCCCCCC1SCC(=O)N1c1nncs1 (stereo not drawn)
T/C [5]: 102 % of control
T/C (dose: 120.0 mg/kg/injection, schedule: Q01DX005 (ip), vehicle: saline with Tween-80): 97 % of control
T/C (dose: 240.0 mg/kg/injection, schedule: Q01DX005 (ip), vehicle: saline with Tween-80): 94 % of control

COc1cc(CCN=Cc2cccnc2)c([N+](=O)[O-])cc1OC
T/C (dose: 50.0 mg/kg/injection, schedule: Q01DX005 (ip), vehicle: Klucel (hydroxypropylcellulose) (HPC)): 101 % of control
T/C (dose: 100.0 mg/kg/injection, schedule: Q01DX005 (ip), vehicle: Klucel (hydroxypropylcellulose) (HPC)): 100 % of control
T/C (dose: 200.0 mg/kg/injection, schedule: Q01DX005 (ip), vehicle: Klucel (hydroxypropylcellulose) (HPC)): 100 % of control

O=C(CC(O)CCc1ccc(O)c(O)c1)O[C@H]1Cc2c(O)cc(O)cc2O[C@H]1c1ccc(O)c(O)c1 (stereo partly drawn)
T/C (dose: 20.0 mg/kg/injection, schedule: Q01DX005 (ip), vehicle: saline with Tween-80): 105 % of control
T/C (dose: 40.0 mg/kg/injection, schedule: Q01DX005 (ip), vehicle: saline with Tween-80): 105 % of control
T/C (dose: 80.0 mg/kg/injection, schedule: Q01DX005 (ip), vehicle: saline with Tween-80): 100 % of control

S=P(N1CCCCCC1)(N1CC1)N1CC1
T/C (dose: 12.5 mg/kg/injection, schedule: Q04DX003 (ip), vehicle: saline with Tween-80): 109 % of control
T/C (dose: 16.5 mg/kg/injection, schedule: Q01DX009 (ip), vehicle: saline): 108 % of control
T/C (dose: 33.0 mg/kg/injection, schedule: Q04DX003 (ip), vehicle: saline sonified): 109 % of control
T/C (dose: 37.5 mg/kg/injection, schedule: Q01DX009 (ip), vehicle: saline): 183 % of control
T/C (dose: 50.0 mg/kg/injection, schedule: Q01DX009 (ip), vehicle: saline): 95 % of control
T/C (dose: 50.0 mg/kg/injection, schedule: Q04DX003 (ip), vehicle: saline sonified): 118 % of control
T/C (dose: 50.0 mg/kg/injection, schedule: Q04DX003 (ip), vehicle: saline with Tween-80): 154 % of control

C(=NCCN=Cc1cc2c(c3ccccc13)CCCC2)c1cc2c(c3ccccc13)CCCC2
T/C [1]: 96 % of control
T/C [2]: 91 % of control
T/C [3]: 88 % of control

COc1ccc(C(Cl)(c2ccccc2)c2ccc(C(C)=O)cc2)cc1 (stereo not drawn)
T/C (dose: 15.0 mg/kg/injection, schedule: Q01DX005 (ip), vehicle: saline with Tween-80): 107 % of control
T/C (dose: 30.0 mg/kg/injection, schedule: Q01DX005 (ip), vehicle: saline with Tween-80): 101 % of control
T/C [5]: 88 % of control and 97 % of control

CC1(O)CC23CC1CCC2(C)C12CCCC(C)(C(=O)O1)C2CC3O (stereo not drawn)
T/C (dose: 12.5 mg/kg/injection, schedule: Q01DX009 (ip), vehicle: Klucel (hydroxypropylcellulose) (HPC)): 99 % of control
T/C (dose: 25.0 mg/kg/injection, schedule: Q01DX009 (ip), vehicle: Klucel (hydroxypropylcellulose) (HPC)): 100 % of control
T/C (dose: 50.0 mg/kg/injection, schedule: Q01DX009 (ip), vehicle: Klucel (hydroxypropylcellulose) (HPC)): 108 % of control
T/C (dose: 100.0 mg/kg/injection, schedule: Q01DX009 (ip), vehicle: Klucel (hydroxypropylcellulose) (HPC)): 103 % of control
T/C (dose: 200.0 mg/kg/injection, schedule: Q01DX009 (ip), vehicle: Klucel (hydroxypropylcellulose) (HPC)): 100 % of control

CCCCOC(=O)C1CSSCC(NC(C)=O)C(=O)N1 (stereo not drawn)
T/C (dose: 17.5 mg/kg/injection, schedule: Q01DX005 (ip), vehicle: Klucel (hydroxypropylcellulose) (HPC)): 101 % of control
T/C (dose: 35.0 mg/kg/injection, schedule: Q01DX005 (ip), vehicle: Klucel (hydroxypropylcellulose) (HPC)): 102 % of control
T/C (dose: 70.0 mg/kg/injection, schedule: Q01DX005 (ip), vehicle: Klucel (hydroxypropylcellulose) (HPC)): 108 % of control

Cc1ccc(C[N+](C)(C)C)cc1
T/C (dose: 12.5 mg/kg/injection, schedule: Q01DX009 (ip), vehicle: saline with Tween-80): 107 % of control
T/C [6]: 100 % of control
T/C [7]: 100 % of control and 106 % of control

CC(C)NC(=O)OCc1c(COC(=O)NC(C)C)c(-c2ccc(Cl)c(Cl)c2)n2c1CSC2
T/C (dose: 25.0 mg/kg/injection, schedule: Q01DX005 (ip), vehicle: Klucel + Tween-80): 91 % of control
T/C (dose: 50.0 mg/kg/injection, schedule: Q01DX005 (ip), vehicle: Klucel + Tween-80): 88 % of control
T/C (dose: 100.0 mg/kg/injection, schedule: Q01DX005 (ip), vehicle: Klucel + Tween-80): 87 % of control and 92 % of control
T/C (dose: 200.0 mg/kg/injection, schedule: Q01DX005 (ip), vehicle: Klucel + Tween-80): 86 % of control and 88 % of control
T/C (dose: 400.0 mg/kg/injection, schedule: Q01DX005 (ip), vehicle: Klucel + Tween-80): 89 % of control

CC(C)C12OC1C1OC13C1(C)CCC(O)CC1CC1OC13C2O (stereo not drawn)
T/C (dose: 0.03 mg/kg/injection, schedule: Q01DX009 (ip), vehicle: saline + alcohol): 103 % of control and 101 % of control and 111 % of control
T/C (dose: 0.06 mg/kg/injection, schedule: Q01DX009 (ip), vehicle: saline + alcohol): 102 % of control and 111 % of control
T/C (dose: 0.12 mg/kg/injection, schedule: Q01DX009 (ip), vehicle: saline + alcohol): 115 % of control and 109 % of control and 107 % of control
T/C (dose: 0.25 mg/kg/injection, schedule: Q01DX009 (ip), vehicle: saline + alcohol): 111 % of control and 106 % of control and 117 % of control
T/C (dose: 0.5 mg/kg/injection, schedule: Q01DX009 (ip), vehicle: saline + alcohol): 115 % of control and 109 % of control
T/C (dose: 1.0 mg/kg/injection, schedule: Q01DX009 (ip), vehicle: saline + alcohol): 109 % of control and 115 % of control
T/C (dose: 2.0 mg/kg/injection, schedule: Q01DX009 (ip), vehicle: saline + alcohol): 111 % of control and 103 % of control and 106 % of control
T/C (dose: 4.0 mg/kg/injection, schedule: Q01DX009 (ip), vehicle: saline + alcohol): 103 % of control and 100 % of control
T/C (dose: 8.0 mg/kg/injection, schedule: Q01DX009 (ip), vehicle: saline + alcohol): 103 % of control and 100 % of control
T/C (dose: 16.0 mg/kg/injection, schedule: Q01DX009 (ip), vehicle: saline + alcohol): 102 % of control and 103 % of control

OC1CC2CCCCC2CC1c1ccccc1 (stereo not drawn)
T/C (dose: 50.0 mg/kg/injection, schedule: Q04DX002 (ip), vehicle: saline with Tween-80): 100 % of control and 92 % of control
T/C (dose: 100.0 mg/kg/injection, schedule: Q04DX002 (ip), vehicle: saline with Tween-80): 111 % of control and 92 % of control
T/C (dose: 200.0 mg/kg/injection, schedule: Q04DX002 (ip), vehicle: saline with Tween-80): 92 % of control and 97 % of control
T/C (dose: 400.0 mg/kg/injection, schedule: Q04DX002 (ip), vehicle: saline with Tween-80): 116 % of control

CCOC(=O)C12CCCCC1OC(=N)C2 (stereo not drawn)
T/C (dose: 60.0 mg/kg/injection, schedule: Q01DX005 (ip), vehicle: Klucel + Tween-80): 101 % of control
T/C (dose: 120.0 mg/kg/injection, schedule: Q01DX005 (ip), vehicle: Klucel + Tween-80): 98 % of control
T/C (dose: 240.0 mg/kg/injection, schedule: Q01DX005 (ip), vehicle: Klucel + Tween-80): 99 % of control

C/C(=N/O)[c-]1[c-][c-][c-][c-]1.[Fe].[c-]1[c-][c-][cH-][c-]1
T/C [6]: 120 % of control
T/C [7]: 115 % of control
T/C [4]: 100 % of control

O=S(=O)(O)O.[W]
T/C (dose: 0.38 mg/kg/injection, schedule: Q01DX009 (ip), vehicle: saline with Tween-80): 91 % of control
T/C (dose: 0.38 mg/kg/injection, schedule: Q01DX009 (ip), vehicle: saline): 99 % of control
T/C (dose: 0.75 mg/kg/injection, schedule: Q01DX009 (ip), vehicle: saline): 89 % of control and 96 % of control
T/C (dose: 1.5 mg/kg/injection, schedule: Q01DX009 (ip), vehicle: saline with Tween-80): 100 % of control
T/C (dose: 1.5 mg/kg/injection, schedule: Q01DX009 (ip), vehicle: saline): 98 % of control and 86 % of control
T/C (dose: 3.0 mg/kg/injection, schedule: Q01DX009 (ip), vehicle: saline with Tween-80): 87 % of control
T/C (dose: 3.0 mg/kg/injection, schedule: Q01DX009 (ip), vehicle: saline): 89 % of control and 94 % of control

— PubChem BioAssay AID330 (DTP/NCI, 2004)
